The subject of test [1] is normal human nasal epithelium. The test can be described thus: Bioelectric studies (short circuit current, Isc) of normal human nasal epithelium in Ussing chambers. The note with it: for change in ion transport rates / character of concentration-effect curve including 10^-3 M / character of log concentration-effect curve / rank order of potency for increase in Isc: basolateral surface; for change in ion transport rates: compared to ATP curve; for change in ion transport rates / rank order of potency for increase in Isc: FIG. 1; for increase in Isc: dipyridamole 10^-6 M; for rank order of potency for Cl^- secretion: FIG. 2; for character of concentration-effect curve including 10^-3 M: 10^-3 M drug considered; for character of log concentration-effect curve: 10^-7 to 10^-4 M. It counts as cell-based. On the procedure: (§1) Freshly excised human nasal epithelium from normal or cystic fibrosis subjects was grown in primary culture in F-12, hormone-supplemented medium in accordance with known procedures. See R. Wu et al., Am. Rev. Respir. Dis. 132, 311-320 (1985). For [Ca^2+ ]i measurements, cultures were grown on non-fluorescent vitrogen substrates on glass coverslips. Cultures for electrophysiologic studies were grown to confluence on permeable collagen matrix supports (CMS), allowing addition of agonists to the basolateral or apical surface of the epithelial sheet.
(§2) Confluent monolayers of primary human nasal epithelium were mounted in modified Ussing chambers in accordance with known procedures. See, e.g., R. Boucher et al., J. Physiol. (Lond.) 405, 77-103 (1988); M. Knowles et al., Science 221, 1067-1070 (1983). The studies described below were performed under short circuit current conditions at 37° C., and in some studies, amiloride was added to the apical bath (10^-4 M) to block transepithelial sodium transport. Changes in transepithelial potential difference (Vt), resistance (Rt) and short circuit current (Isc) were measured in response to addition of various nucleotides. Each cultured preparation was exposed to only one concentration of an agonist on either the basolateral or apical surface to avoid the tachyphylaxis observed in preliminary cumulative dose response studies. To construct concentration-effect relationships of responses to nucleotides, it was assumed that the same maximum response to an agonist could be induced from each tissue culture preparation from the same individual.
The effects of extracellular ATP on normal human nasal epithelium were investigated employing bioelectric measurements of ion transport activity when the nucleotide was applied to either the apical or basolateral membrane. […] In general, the change in Isc induced by application of ATP to the apical or the basolateral side returned to baseline or below within 5 minutes after addition of agonist. […] Apical pretreatment with amiloride (10^-4 M) removes active Na^+ absorption as a component of the Isc so that the residual Isc reflects a Cl^- secretory current (R. Boucher et al., J. Clin. Invest. 78, 1245-1252 (1986); N. Willumsen et al., Am. J. Physiol. 256, C1033-C1044 (1989)).
A concentration-effect relationship was found when ATP was applied to normal human nasal epithelium under basal conditions (data not shown). Comparisons were made between responses of tissues from different donors based on the peak change in Isc following ATP application. The curve describes the mean peak change in Isc in response to log increasing concentrations of ATP applied to the apical or basolateral surface.
Concentration-effect relationships were also found for ATP applied to the apical or basolateral membrane of amiloride-pretreated tissues (data not shown). Again, the nucleotide's effect on ion transport was examined as the mean peak change in Isc after ATP application.
(§3) The purinergic receptor subtype(s) linked to regulation of ion transport of human nasal epithelium were characterized by obtaining concentration-effect relationships for a variety of purine and pyrimidine agonists in preparations derived from normal and CF patients. We characterized receptor subtype(s) on the […] surface by measuring nucleotide effect on basal Na^+ transport rates. Because therapies designed to induce Cl^- secretion might best be delivered by the aerosol route, receptor subtype characterization on the apical barrier was performed in the presence of amiloride. The effect of extracellular nucleotides on ion transport is reported as the percent change in Isc from control values when applied to the basolateral or apical surface of the culture. Basal pre-agonist currents were similar for tissues in each concentration group.

Test [2] concerns normal human nasal epithelial cells. The test can be described thus: Intracellular calcium [Ca^2+ ]i in single normal human nasal epithelial cells (Fura-2). It counts as cell-based. To be noted: concentration-effect curves, FIG. 3. On the procedure: as §1
Primary human nasal epithelial cells grown to confluence on vitrogen coated coverslips were loaded with a final concentration of 3 μM Fura-2/AM at 37° C. for 30 minutes. The cells were then washed in NaCl Ringer and mounted in a chamber for measurements of fluorescence. To reduce the rate of leakage of Fura-2 from the cell into the extracellular space and avoid time-dependent compartmentalization of the probe, all measurements of [Ca^2+ ]i were performed at 25° C. At this temperature,no vesicular bright spots indicative of compartmentalization of the probe were observed.
Measurements of [Ca^2+ ]i in single human nasal epithelial cells were obtained with a modular microspectrofluorimeter (SPEX Industries, Inc., Edison, N.J.) attached to a Zeiss Axiovert IM 35 microscope. The system was equipped with a xenon lamp, beam splitter, two monochromators and a rotating chopper mirror that permitted excitation of cell fluorescence at alternating wavelengths of 340 and 380 nm (emission ≥450 nm). The fluorescent signal from a single cell was measured with a photometer equipped with a pinhole (spot diameter of 3-5 μm) that excluded signals from adjacent cells.
After agonist was added, the fluorescent signal was quenched by a NaCl ringer solution containing 1.5×10^-4 M digitonin and 10^-3 M MnCl2. The remaining signal at each excitation wavelength, equivalent to the background fluorescence in non loaded cells, was subtracted from data from Fura-2/AM loaded cells before the ratio (340 nm/380 nm) was taken. The 340 nm/380 nm ratio was converted to an actual [Ca^2+ ]i measurement by using the external calibration standards and the formula derived by G. Grynkiewicz et al., J. Biol. Chem. 260, 3440-3450 (1985), used with dual wavelength measurements: [Ca^2+ ]i =K [(Rx --Ro)/(Rs --Rx)], with Ro and Rs representing the ratios at 0 Ca^2+ and saturating Ca^2+, respectively. Rx represents the experimental ratio.
To investigate whether changes in [Ca^2+ ]i might be related to regulation of ion transport, receptor characterization was performed by measuring changes in [Ca^2+ ]i in response to a number of nucleotide drugs. Concentration-effect curves for agonists active at P2x, P2y subtype or UTP sensitive receptors and other purine or pyrimidine receptor agonists were generated, measuring mean change in [Ca^2+ ]i in response to agonist concentration. Data are shown in FIG. 3, which gives log concentration-effect relationships of purinergic and pyrimidinergic compounds on [Ca^2+ ]i (mean change in [Ca^2+ ]i over basal levels).
(In general: Calcium flux is commonly read through the fluorescence of an indicator in the cells.)

Test [3] relates to CF human nasal epithelium. The experiment in a line: Bioelectric studies (Isc) of cystic fibrosis (CF) human nasal epithelium. It counts as cell-based. The note with it: for Isc response tracing: apical, amiloride-pretreated, FIG. 4C. On the procedure: as §1, §2, §3
Availability of Cystic Fibrosis (CF) tissues is limited, and our investigation of effects of nucleotides was restricted to examining regulation of Cl^- secretion rates and [Ca^2+ ]i levels by ATP and UTP.

Test [4] deals with CF nasal epithelial cells. The experiment in a line: Intracellular calcium [Ca^2+ ]i in single CF nasal epithelial cells (Fura-2). It counts as cell-based, human. The note with it: FIG. 6. On the procedure:
Freshly excised human nasal epithelium from normal or cystic fibrosis subjects was grown in primary culture in F-12, hormone-supplemented medium in accordance with known procedures. See R. Wu et al., Am. Rev. Respir. Dis. […] For [Ca^2+ ]i measurements, cultures were grown on non-fluorescent vitrogen substrates on glass coverslips. Cultures for electrophysiologic studies were grown to confluence on permeable collagen matrix supports (CMS), allowing addition of agonists to the basolateral or apical surface of the epithelial sheet.
Primary human nasal epithelial cells grown to confluence on vitrogen coated coverslips were loaded with a final concentration of 3 μM Fura-2/AM at 37° C. for 30 minutes. The cells were then washed in NaCl Ringer and mounted in a chamber for measurements of fluorescence. To reduce the rate of leakage of Fura-2 from the cell into the extracellular space and avoid time-dependent compartmentalization of the probe, all measurements of [Ca^2+ ]i were performed at 25° C.
Measurements of [Ca^2+ ]i in single human nasal epithelial cells were obtained with a modular microspectrofluorimeter (SPEX Industries, Inc., Edison, N.J.) attached to a Zeiss Axiovert IM 35 microscope. […] The fluorescent signal from a single cell was measured with a photometer equipped with a pinhole (spot diameter of 3-5 μm) that excluded signals from adjacent cells. […]

The conditions of test [5]: 25° C.; read-out: Kd (effective dissociation constant for Fura-2); cited from earlier work.
Setting [6] is: apical surface, amiloride-pretreated.

Turning to `Nc1ncnc2c1ncn2[C@@H]1O[C@H](COP(=O)(O)CP(=O)(O)OP(=O)(O)O)[C@@H](O)[C@H]1O` [αβMeATP, α,β-methylene ATP], the “change in ion transport rates” value in test [1] is on record as “little change in ion transport rates”. In addition, in test [2], the “effectiveness for raising [Ca^2+ ]i” value was “little effect”.
As to `O=c1[nH]c(=O)n([C@@H]2O[C@H](COP(=O)(O)OP(=O)(O)OP(=O)(O)O)[C@@H](O)[C@H]2O)cc1Br` [5BrUTP, 5-bromo-uridine 5'-triphosphate], in test [2], the “effectiveness for raising [Ca^2+ ]i” value is “essentially as effective as UTP”.
`Nc1ncnc2c1ncn2[C@@H]1O[C@H](CO)[C@@H](O)[C@H]1O` [adenosine]: the “increase in Isc” value is 10±6% in test [1] (10^-4 M, apical surface, amiloride-pretreated, n=8); “less than 5%” in test [1] (10^-5 M or 10^-4 M, basolateral barrier, n=8 each dose); 10±7% in test [1] (10^-5 M, apical surface, amiloride-pretreated, n=7). In addition, in test [1] (following preincubation with dipyridamole 10^-6 M), the “change in Isc compared to ATP” value was “only small and variable changes in Isc compared to ATP”.
In the case of `Nc1ncnc2c1ncn2[C@@H]1O[C@H](COP(=O)(O)OP(O)(O)=S)[C@@H](O)[C@H]1O` [ADPβS], the “rank order of potency for Cl^- secretion” value in test [1] (setting [6]) is reported as “ATP≥UTP>ATPγS>ADP>2MeSATP>ADPβS”. Besides, in test [1], the “character of concentration-effect curve including 10^-3 M” value is listed as “biphasic in character”, the “character of log concentration-effect curve” value is given as “sigmoidal character” and the “rank order of potency for increase in Isc” value is 2MeSATP>UTP≥ATP>ATPγS>ADP>ADPβS. Moreover, in test [2], the “effectiveness for raising [Ca^2+ ]i” value is recorded as “little effect”.
For `O=c1ccn([C@@H]2O[C@H](COP(=O)(O)OP(=O)(O)OP(=O)(O)O)[C@@H](O)[C@H]2O)c(=O)[nH]1` [UTP, uridine 5'-triphosphate], in test [1] (setting [6]), the “rank order of potency for Cl^- secretion” value was “ATP≥UTP>ATPγS>ADP>2MeSATP>ADPβS”. Also, in test [1], the “character of concentration-effect curve including 10^-3 M” value was “biphasic in character”, the “character of log concentration-effect curve” value is given as “sigmoidal character” and the “rank order of potency for increase in Isc” value is 2MeSATP>UTP≥ATP>ATPγS>ADP>ADPβS. In addition, the “effectiveness for raising [Ca^2+ ]i” value in test [2] was “most effective agonists”. Moreover, the Isc response tracing result in test [3] (UTP 10^-4 M as printed) is listed as “Cl^- secretory response”. Also, in test [3] (UTP 10^-6 M as printed), the Isc response tracing result is given as “Cl^- secretory response”. In addition, the “change in Isc over basal levels” value in test [3] (apical surface, amiloride-pretreated CF tissues) is listed as “routinely stimulated increases in Cl^- secretion”. Further, the “[Ca^2+ ]i response in CF tissues” value in test [4] is “Increases in [Ca^2+ ]i”.
In the case of `CSc1nc(N)c2ncn([C@@H]3O[C@H](COP(=O)(O)OP(=O)(O)OP(=O)(O)O)[C@@H](O)[C@H]3O)c2n1` [2MeSATP, 2-methylthio ATP], the “rank order of potency for Cl^- secretion” value in test [1] (setting [6]) is reported as “ATP≥UTP>ATPγS>ADP>2MeSATP>ADPβS”. Moreover, the “rank order of potency for increase in Isc” value in test [1] is 2MeSATP>UTP≥ATP>ATPγS>ADP>ADPβS. For the same compound, the “effectiveness for raising [Ca^2+ ]i” value in test [2] was “little effect”.
Consider `Nc1ncnc2c1ncn2[C@@H]1O[C@H](COP(=O)(O)OP(=O)(O)OP(O)(O)=S)[C@@H](O)[C@H]1O` [ATPγS], for which, in test [1] (setting [6]), the “rank order of potency for Cl^- secretion” value is on record as “ATP≥UTP>ATPγS>ADP>2MeSATP>ADPβS”. Further, in test [1], the “character of concentration-effect curve including 10^-3 M” value is given as “biphasic in character”, the “character of log concentration-effect curve” value is given as “sigmoidal character” and the “rank order of potency for increase in Isc” value is 2MeSATP>UTP≥ATP>ATPγS>ADP>ADPβS. Also, the “effectiveness for raising [Ca^2+ ]i” value in test [2] was “most effective agonists”.
Turning to `Nc1ncnc2c1ncn2[C@@H]1O[C@H](COP(=O)(O)OP(=O)(O)CP(=O)(O)O)[C@@H](O)[C@H]1O` [βγMeATP, β,γ-methylene ATP], the “change in ion transport rates” value in test [1] is given as “little change in ion transport rates”. Besides, the “effectiveness for raising [Ca^2+ ]i” value in test [2] is reported as “little effect”.
As for `Nc1ncnc2c1ncn2[C@@H]1O[C@H](COP(=O)(O)OP(=O)(O)O)[C@@H](O)[C@H]1O` [ADP], the “rank order of potency for Cl^- secretion” value in test [1] (setting [6]) was “ATP≥UTP>ATPγS>ADP>2MeSATP>ADPβS”. In addition, the “rank order of potency for increase in Isc” value in test [1] was 2MeSATP>UTP≥ATP>ATPγS>ADP>ADPβS.
On to `Cc1ccc(N(CC(=O)O)CC(=O)O)c(OCCOc2cc3cc(-c4ncc(C(=O)O)o4)oc3cc2N(CC(=O)O)CC(=O)O)c1` [Fura-2], for which, in test [5], the dissociation constant (Kd) was 0.157 µM.

The Kd is the free concentration of one partner at which half of the binding sites on the other are occupied at equilibrium, for simple one-to-one binding.

Source of the values: patent US5292498A, “Method of treating lung disease with uridine triphosphates” (The University of North Carolina At Chapel Hill, priority 1991, dated 1994).
